Our source for the IC50, Ratio IC50 and inhibition values is ChEMBL document CHEMBL2331140, “A novel series of tacrine-selegiline hybrids with cholinesterase and monoamine oxidase inhibition activities for the treatment of Alzheimer's disease” (Eur J Med Chem, 2013).

Structures are written as SMILES.

Assay [1] addresses T1, Amine oxidase [flavin-containing] A (Homo sapiens, UniProt P21397).
T1 sequence (P21397 whole entry): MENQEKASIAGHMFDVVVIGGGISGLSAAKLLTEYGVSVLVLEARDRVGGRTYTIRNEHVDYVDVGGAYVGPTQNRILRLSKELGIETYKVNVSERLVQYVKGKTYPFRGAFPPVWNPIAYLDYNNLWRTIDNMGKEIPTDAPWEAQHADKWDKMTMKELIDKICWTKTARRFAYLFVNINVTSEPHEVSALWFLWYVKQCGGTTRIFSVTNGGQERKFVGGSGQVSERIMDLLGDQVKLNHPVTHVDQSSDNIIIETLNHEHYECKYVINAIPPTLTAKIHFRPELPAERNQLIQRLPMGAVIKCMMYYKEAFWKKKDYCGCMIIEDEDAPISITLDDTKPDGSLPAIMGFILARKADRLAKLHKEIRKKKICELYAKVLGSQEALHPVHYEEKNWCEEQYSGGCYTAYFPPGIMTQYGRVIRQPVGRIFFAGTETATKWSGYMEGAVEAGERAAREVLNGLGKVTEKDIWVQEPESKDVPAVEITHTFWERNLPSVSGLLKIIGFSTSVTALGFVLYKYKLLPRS
Description: Inhibition of recombinant human MAO-A using p-tyramine substrate preincubated for 15 mins before substrate addition measured after 20 mins by fluorescence assay

Another assay addresses Cholinesterase (Equus caballus, UniProt P81908).
The nature of assay [2]: Selectivity index, ratio of IC50 for recombinant human MAO-A to IC50 for recombinant human MAO-B.
The target of assay [3] is T2, Amine oxidase [flavin-containing] B (Homo sapiens, UniProt P27338).
T2 sequence (P27338 whole entry): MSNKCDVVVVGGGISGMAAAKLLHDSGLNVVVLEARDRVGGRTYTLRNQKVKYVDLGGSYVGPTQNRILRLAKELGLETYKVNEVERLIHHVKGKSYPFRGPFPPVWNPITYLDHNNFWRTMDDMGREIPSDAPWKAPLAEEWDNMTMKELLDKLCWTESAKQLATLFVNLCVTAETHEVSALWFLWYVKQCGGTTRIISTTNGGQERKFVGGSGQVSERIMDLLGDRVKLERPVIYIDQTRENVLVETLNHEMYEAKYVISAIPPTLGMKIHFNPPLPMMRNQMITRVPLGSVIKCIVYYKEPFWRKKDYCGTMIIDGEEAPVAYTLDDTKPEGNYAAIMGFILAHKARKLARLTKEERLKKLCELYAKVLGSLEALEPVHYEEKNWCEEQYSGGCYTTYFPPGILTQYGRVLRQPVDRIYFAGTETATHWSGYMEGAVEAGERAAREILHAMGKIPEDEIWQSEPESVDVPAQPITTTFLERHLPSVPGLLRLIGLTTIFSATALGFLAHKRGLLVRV
Description: Inhibition of recombinant human MAO-B using p-benzylamine substrate preincubated for 15 mins before substrate addition measured after 20 mins by fluorescence assay

For a further assay, the target named is Acetylcholinesterase (Electrophorus electricus, UniProt O42275).
Acetylcholinesterase, sequence (O42275 whole entry): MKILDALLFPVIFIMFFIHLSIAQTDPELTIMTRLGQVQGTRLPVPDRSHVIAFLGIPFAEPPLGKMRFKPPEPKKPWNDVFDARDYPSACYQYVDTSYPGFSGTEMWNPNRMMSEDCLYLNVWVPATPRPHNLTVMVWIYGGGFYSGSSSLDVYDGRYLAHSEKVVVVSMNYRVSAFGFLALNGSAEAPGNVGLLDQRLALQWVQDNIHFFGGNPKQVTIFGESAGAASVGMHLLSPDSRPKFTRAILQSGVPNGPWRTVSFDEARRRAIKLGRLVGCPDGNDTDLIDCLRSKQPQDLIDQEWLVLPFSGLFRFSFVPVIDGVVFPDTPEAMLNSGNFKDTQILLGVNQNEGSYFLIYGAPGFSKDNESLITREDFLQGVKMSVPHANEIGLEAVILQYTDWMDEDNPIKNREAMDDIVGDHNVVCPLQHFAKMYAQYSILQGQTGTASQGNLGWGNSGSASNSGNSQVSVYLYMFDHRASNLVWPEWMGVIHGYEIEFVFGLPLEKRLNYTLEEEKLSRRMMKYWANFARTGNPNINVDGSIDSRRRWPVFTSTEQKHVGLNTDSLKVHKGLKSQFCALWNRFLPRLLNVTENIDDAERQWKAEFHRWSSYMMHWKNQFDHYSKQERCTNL
Assay [4] concerns the target T2, Amine oxidase [flavin-containing] B. The note with it: read-out: INH.
For assay [5] the target is unchanged. The settings on record: 20 min, read-out: INH.

Cholinesterase, sequence (P81908 whole entry): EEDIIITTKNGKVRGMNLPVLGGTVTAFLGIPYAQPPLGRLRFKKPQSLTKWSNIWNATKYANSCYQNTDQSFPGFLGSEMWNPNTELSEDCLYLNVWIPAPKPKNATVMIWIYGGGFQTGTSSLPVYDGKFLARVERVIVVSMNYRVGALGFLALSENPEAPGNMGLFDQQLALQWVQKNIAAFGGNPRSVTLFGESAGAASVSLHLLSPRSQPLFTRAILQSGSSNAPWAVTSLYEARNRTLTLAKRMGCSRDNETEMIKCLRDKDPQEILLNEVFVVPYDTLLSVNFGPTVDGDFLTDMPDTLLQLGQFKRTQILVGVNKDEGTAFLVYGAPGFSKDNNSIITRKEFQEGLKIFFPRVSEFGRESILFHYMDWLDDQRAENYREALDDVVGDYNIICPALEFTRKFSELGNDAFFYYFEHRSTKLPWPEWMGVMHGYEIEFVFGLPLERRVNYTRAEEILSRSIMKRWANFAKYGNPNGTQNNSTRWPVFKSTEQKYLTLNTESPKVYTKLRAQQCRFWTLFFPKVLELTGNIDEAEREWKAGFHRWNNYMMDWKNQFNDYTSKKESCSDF
Description for Acetylcholinesterase: Inhibition of electric eel AChE using acetylthiocholine chloride as substrate after 15 mins by Ellman's method

The IC50 is the midpoint of a concentration-inhibition curve. The low end stands for higher potency, the high end for lower potency. In the case of `C#CCN(CCCCCCNc1c2c(nc3ccccc13)CCCC2)[C@H](C)Cc1ccc(OC)cc1`, the 50% inhibitory concentration (IC50) in assay [1] worked out at 33800 nM; against Cholinesterase, 28.7 nM; in assay [3], 18100 nM; against Acetylcholinesterase, 456 nM. The Ratio IC50 in assay [2] was 1.9.
For `C#CCN(C)[C@H](C)Cc1ccc(OCCNc2c3c(nc4ccccc24)CCCC3)cc1` the same measures were 4860 nM, 50.6 nM, 693 nM, 83.1 nM and 7.
For `C#CCN(C)[C@H](C)Cc1ccc(OCCCCCCNc2c3c(nc4cc(Cl)ccc24)CCCC3)cc1` the same measures were 521 nM, 18.8 nM, 519 nM, 79.3 nM and 1.
For `C#CCN(C)[C@H](C)Cc1ccc(OCCCCCCCCNc2c3c(nc4ccccc24)CCCC3)cc1` the same measures were 591 nM, 35.5 nM, 167 nM, 147 nM and 3.5.
`C#CCN(C)[C@H](C)Cc1ccc(OCCCCCCCCNc2c3c(nc4cc(Cl)ccc24)CCCC3)cc1`: the IC50 worked out at 193 nM in assay [1], 17.6 nM on Cholinesterase, 129 nM in assay [3] and 55.4 nM against Acetylcholinesterase. Moreover, the Ratio IC50 in assay [2] was 1.5.
For `C#CCN(C)[C@H](C)Cc1ccc(OCCCNc2c3c(nc4cc(Cl)ccc24)CCCC3)cc1` the same measures were 9050 nM, 66 nM, 11100 nM, 14.2 nM and 0.8.
For `C#CCN(C)[C@H](C)Cc1ccc(OCCCCNc2c3c(nc4ccccc24)CCCC3)cc1` the same measures were 7000 nM, 39.6 nM, 8550 nM, 53 nM and 0.8.
For `C#CCN(C)[C@H](C)Cc1ccc(OCCCCCCCCCCNc2c3c(nc4ccccc24)CCCC3)cc1` the same measures were 313 nM, 2.03 nM, 346 nM, 23.2 nM and 0.9.
For `C#CCN(C)[C@H](C)Cc1ccc(OCCCCCNc2c3c(nc4cc(Cl)ccc24)CCCC3)cc1`, the IC50 in assay [1] was 2860 nM; against Cholinesterase, 18.6 nM; in assay [3], 6210 nM; against Acetylcholinesterase, 82 nM. The Ratio IC50 in assay [2] turned out to be 0.5.
Regarding `C#CCN(C)[C@H](C)Cc1ccc(OCCCCCCCCCNc2c3c(nc4ccccc24)CCCC3)cc1`, the IC50 against Cholinesterase is 9.37 nM; against Acetylcholinesterase, 22.6 nM. The inhibition at 0.2 µM was found to be 81.6% in assay [4] and 70.8% in assay [5].
As to `C#CCN(C)[C@H](C)Cc1ccc(OCCCNc2c3c(nc4ccccc24)CCCC3)cc1`, the IC50 amounted to 43400 nM in assay [1], 41.4 nM on Cholinesterase, 4460 nM in assay [3] and 36.1 nM on Acetylcholinesterase. In addition, in assay [2], the Ratio IC50 was 9.7.
For `C#CCN(C)[C@H](C)Cc1ccc(OCCCCCCNc2c3c(nc4ccccc24)CCCC3)cc1` the same measures were 398 nM, 16.1 nM, 209 nM, 138 nM and 1.9.
For `C#CCN(C)[C@H](C)Cc1ccc(OCCCCCNc2c3c(nc4ccccc24)CCCC3)cc1` the same measures were 1260 nM, 23.5 nM, 2400 nM, 77.6 nM and 0.5.
